In paper PMC9256669, “Monomethyl auristatin antibody and peptide drug conjugates for trimodal cancer chemo-radio-immunotherapy” (Nature Communications, 2022):
Values joined by “and” are separate entries in the source; they are usually repeats but may differ in a detail not shown here. Identical values can stand only once. “Also recorded” adds a separate entry of the source. Like-named read-outs stand apart in the source and are kept apart here. Non-standard residues stand in square brackets, D forms with d. Residues, ends and D or L forms follow the SMILES beside them. Dolaproine = CO[C@@H]([C@@H]1CCCN1)[C@@H](C)C(=O)O; Dil = CC[C@H](C)[C@H](NC)[C@@H](CC(=O)O)OC; NMeV = CN[C@H](C(=O)O)C(C)C

Key:
[1] = test system: A549; assay: Cytotoxicity, Alamar Blue assay; format: cell-based, human; details: 72 h drug exposure, one value per biological replicate
Protocol: (§1) Cells were plated in 96-well plates and exposed to a drug concentration range for 72 h. Alamar Blue was added to the cells and allowed to incubate for 2–4 h at 37 °C. Plates were analyzed using a plate reader with fluorescence measured at 560 nm. Fractional survival was normalized to untreated control cell fluorescent values. Drug IC50 was calculated using Prism software (GraphPad, La Jolla, CA). Cell viability, cytotoxicity and apoptosis were also measured by ApoTox-Glo Triplex Assay (Promega).

[2] = test system: HCT116; assay: Cytotoxicity, Alamar Blue assay; format: cell-based, human; details: 72 h drug exposure, one value per biological replicate
Protocol: as §1

[3] = test system: CAL27; assay: Cytotoxicity, Alamar Blue assay; format: cell-based, human
Protocol: (§2) Murine colorectal (MC38 (ENH204-FP)) cancer cell lines were obtained from Kerafast. Murine head and neck MOC1 and MOC2 were generously provided by Dr. R. Uppaluri. CAL27 PIK3CA H1047R expressing cells and 4MOSC1 cells were generated in Dr. Gutkind’s laboratory and previously characterized[42],[55]. […] MC38 cells were cultured in DMEM supplemented with 10% FBS, 1 mM sodium pyruvate (Gibco), 1% non-essential amino acids (Gibco), and 10 mM HEPES (Gibco). MOC1 and MOC2 cells were cultured in IMDM (Lonza)/F-12K nutrient mixture at a 2:1 mixture with 5% FBS, 5 ng/ml EGF (EMD Millipore), 400 ng/ml hydrocortisone (Sigma), and […] insulin (Sigma). On receipt, each cell line was expanded, cryopreserved as low passage stocks, and routinely tested for mycoplasma. Cisplatin (Enzo Biosciences), paclitaxel (Sigma), and MMAE (Concortis) were reconstituted in DMSO. Clinical-grade CDX3379 was provided by Celldex. Clinical grade cetuximab (Erbitux, Lilly Medical) was obtained from UCSD Moores Cancer Center Pharmacy.
as §1

[4] = test system: Detroit 562; assay: Cytotoxicity, Alamar Blue assay; format: cell-based, human
Protocol: as §2, §1

[5] = test system: 4MOSC1; assay: Cytotoxicity, Alamar Blue assay; format: cell-based, murine
Protocol: as §2, §1

[6] = test system: B16; assay: Cytotoxicity, Alamar Blue assay; format: cell-based, murine
Protocol: as §2, §1

[7] = test system: LL2; assay: Cytotoxicity, Alamar Blue assay; format: cell-based, murine
Protocol: as §2, §1

[8] = test system: MC38; assay: Cytotoxicity, Alamar Blue assay; format: cell-based, murine
Protocol: as §2, §1

[9] = test system: MOC1; assay: Cytotoxicity, Alamar Blue assay; format: cell-based, murine
Protocol: as §2, with “Clinical-grade CDX3379 was provided by Celldex.” left out
as §1
(§3) measured by Alamar Blue assay. For Alamar Blue assay cytotoxicity, we measured cell viability at 72 hr of […]

[10] = test system: MOC2; assay: Cytotoxicity, Alamar Blue assay; format: cell-based, murine
Protocol: as §2, with “Clinical-grade CDX3379 was provided by Celldex.” left out
as §1, §3

[11] = cited from earlier work
[12] = test system: melanoma and lung cancer models; details: without radiotherapy; cited from earlier work
Source text: In the last decade, therapeutics targeting immune checkpoint inhibitors (i.e., CTLA-4, PD-1, and PD-L1) have revolutionized cancer care for subsets of oncology patients[24],[25]. There is tremendous interest in developing strategies to further improve immune checkpoint inhibitor responses to wider patient populations. To achieve increasing therapeutic precision, integrating the specificity of ADC with inherent targeting of radiotherapy and immunotherapy is appealing. […] U3-1402 is a HER3-targeted ADC with a topoisomer ...

[13] = test system: B16 tumors; assay: Subcutaneous tumor therapy, CDX3379-MMAE or CDX3379-MMAF with IR, mouse survival; format: in vivo, C57BL/6 mice
Protocol: MOC1, B16, LL/2, and MC38 tumor cells were injected subcutaneously into the hindlimbs of 6-week-old female C57BL/6 albino mice in 100 µl of 1:1 Matrigel (BD) and PBS solution. Fractionated IR was delivered focally to the tumor-bearing hindlimbs (3 Gy to MC38 tumors and 5 Gy to LL/2 and B16 tumors) as indicated in figure legends using a PXI X-RAD 225 XL irradiator at maximal dose rate of 3 Gy/min with a beam-conditioning aluminum filter (Precision X-ray Irradiation). For RAG1 KO studies, 6-week-old female Rag1^tm1Mom mice were injected subcutaneously with tumor cells in their hindlimbs (Jackson Labs). For CD8 depletion studies, mice were i.p. injected with anti-CD8 (BioXCell #BE0117) at 10 mg/kg on days −6, −5 and −4 tumor cell implant and then weekly starting on day after tumor cells were injected or control antibody. […] Tumor volumes were measured and calculated using the formula as ½ * length * width^2. Mice were sacrificed when tumor volume reached >1500 mm^3, maximal tumor volume approved on our protocol for subcutaneous tumors.

## N.N.[Cl][Pt][Cl] [Cisplatin]
[1]
  IC50: 22600 nM and 27200 nM and 13600 nM and 15400 nM
[2]
  IC50: 42200 nM and 55500 nM
[3]; 72 h drug exposure, one value per biological replicate, read-out: IC50 values
  IC50: 3650 nM and 3760 nM and 7310 nM and 8270 nM and 7270 nM and 6950 nM
[4]; Detroit 562, 72 h drug exposure, one value per biological replicate, read-out: IC50 values
  IC50: 11500 nM and 9550 nM and 10400 nM and 11800 nM
[5]; 4MOSC1, 72 h drug exposure, one value per biological replicate, read-out: IC50 values
  IC50: 1370 nM and 1460 nM
[6]; B16, 72 h drug exposure, one value per biological replicate, read-out: IC50 values
  IC50: 3770 nM and 4490 nM
[7]; LL2, 72 h drug exposure, one value per biological replicate, read-out: IC50 values
  IC50: 1080 nM and 745 nM
[8]; MC38, 72 h drug exposure, one value per biological replicate, read-out: IC50 values
  IC50: 3640 nM and 3830 nM
[9]; MOC1; 72 h drug exposure, Alamar Blue; one value per biological replicate; read-out: IC50 values
  IC50: 13700 nM and 15300 nM and 10400 nM and 10700 nM
[10]; MOC2, 72 h drug exposure, one value per biological replicate, read-out: IC50 values
  IC50: 8750 nM and 9990 nM

## CC[C@H](C)[C@@H]([C@@H](CC(=O)N1CCC[C@H]1[C@H](OC)[C@@H](C)C(=O)N[C@@H](Cc1ccccc1)C(=O)O)OC)N(C)C(=O)[C@@H](NC(=O)[C@@H](NC)C(C)C)C(C)C [MMAF, monomethyl auristatin F] (H-[NMeV]V[Dil][Dolaproine]F-OH)
[11]
  cell permeability as free drug: reduced cell permeability compared to MMAE

## CC(=O)O[C@H]1C(=O)[C@@]2(C)[C@H]([C@H](OC(=O)c3ccccc3)[C@]3(O)C[C@H](OC(=O)[C@H](O)[C@@H](NC(=O)c4ccccc4)c4ccccc4)C(C)=C1C3(C)C)[C@]1(OC(C)=O)CO[C@@H]1C[C@@H]2O [Paclitaxel]
[1]
  IC50: 23.3 nM and 15.1 nM
[1]; Homo sapiens, A549, 72 h
  IC50: 16.6 nM
[2]
  IC50: 2.04 nM and 8.38 nM and 12.4 nM and 9.33 nM
[3]; read-out: IC50 values, 72 h drug exposure, one value per biological replicate
  IC50: 1.4 nM and 1.52 nM and 3.46 nM and 4.62 nM and 3.12 nM and 3.36 nM
[4]; Homo sapiens, Detroit 562, 72 h, read-out: IC50 values, Detroit 562, 72 h drug exposure, one value per biological replicate
  IC50: 5.71 nM
[4]; read-out: IC50 values, Detroit 562, 72 h drug exposure, one value per biological replicate
  IC50: 5.94 nM and 3.87 nM and 4.75 nM
[5]; Mus musculus, 72 h, read-out: IC50 values, 4MOSC1, 72 h drug exposure, one value per biological replicate
  IC50: 7.65 nM
[5]; read-out: IC50 values, 4MOSC1, 72 h drug exposure, one value per biological replicate
  IC50: 12.9 nM
[6]; Mus musculus, B16, 72 h, read-out: IC50 values, B16, 72 h drug exposure, one value per biological replicate
  IC50: 6.1 nM
[6]; read-out: IC50 values, B16, 72 h drug exposure, one value per biological replicate
  IC50: 7.8 nM
[7]; Mus musculus, LL/2, 72 h, read-out: IC50 values, LL2, 72 h drug exposure, one value per biological replicate
  IC50: 15.3 nM
[7]; read-out: IC50 values, LL2, 72 h drug exposure, one value per biological replicate
  IC50: 16.6 nM
[8]; Mus musculus, MC-38, 72 h, read-out: IC50 values, MC38, 72 h drug exposure, one value per biological replicate
  IC50: 67 nM
[8]; read-out: IC50 values, MC38, 72 h drug exposure, one value per biological replicate
  IC50: 75.7 nM
[9]; read-out: IC50 values; MOC1; 72 h drug exposure, Alamar Blue; one value per biological replicate
  IC50: 45.4 nM and 54.2 nM and 26.8 nM and 24.6 nM
[10]; Mus musculus, 72 h, read-out: IC50 values, MOC2, 72 h drug exposure, one value per biological replicate
  IC50: 43.5 nM
[10]; read-out: IC50 values, MOC2, 72 h drug exposure, one value per biological replicate
  IC50: 56.4 nM

## Enapotamab vedotin: AXL-targeted ADC conjugate with an MMAE warhead
[12]
  survival and tumor control: prolonged mouse survival; also recorded: failed to generate durable tumor control

B1: CDX3379-MMAF: anti-HER3 antibody CDX3379 conjugated to MMAF via MC-VC-PABC linker (conjugate, chains of the INN, looked up)
VH: EVQLLESGGGLVQPGGSLRLSCAASGFTFSSYAMSWVRQAPGKGLEWVSAINSQGKSTYYADSVKGRFTISRDNSKNTLYLQMNSLRAEDTAVYYCARWGDEGFDIWGQGTLVTVSS
VL: DIQMTQSPSSLSASVGDRVTITCRASQGISNWLAWYQQKPGKAPKLLIYGASSLQSGVPSRFSGSGSGTDFTLTISSLQPEDFATYYCQQYSSFPTTFGQGTKVEIK
modifications: MMAF via MC-VC-PABC linker
[13]; B16, 2.5 nmoles ADC x 2 doses + IR 5 Gy x 3
  tumor control and survival, + IR: CDX3379-MMAE proved to be superior to CDX3379-MMAF
[13]; with IR, individual mice, status at the day, Figure 3h
  Mouse survival, status: 1
